In brackets after ≈: the same amount, converted by molar mass.
Legend:
[1] = test system: axenic amastigotes of L. amazonensis (strain MHOM/BR/76/LTB-012); experiment: microbe, parasite or virus in culture; details: Leishmania amazonensis, read-out: L. amazonensis IC50
[2] = Toxicity to peritoneal macrophages (Trypan Blue count); format: cell-based, BALB/C mouse; details: BALB/C, mouse, Cytotoxicity Macrophages IC50
[3] = test system: M. tuberculosis H37Rv; experiment: Conventional aerobic (MABA) culture assay, luminescence MIC; format: cell-based, Mycobacterium tuberculosis

C(=N/Nc1ncnc2sc3c(c12)CCCC3)/c1ccccn1 [II-21]
IC50 [1]: 200 nM
IC50 at 48 h [2]: 2000 nM
MIC ([3]; Mycobacterium tuberculosis, 168 h, aerobic, 7 days, H37Rv): 44.9 µg/mL (≈ 145 µM)
Selectivity Index H37Rv ([3]; VERO vs MABA MIC): 0.2

— patent US9061984B2 (University of Louisville Research Foundation, Inc., priority 2008, dated 2015)
